Experiments:
human EP4 = target: T1, human EP4 (Homo sapiens, UniProt P35408); assay: cAMP Gs functional assay (HTRF cAMP dynamic-2) in EP4-transfected HEK293 cells; type: cell-based; conditions: HEK293 cells transfected with EP4 BacMam virus; for EC50: 30 min at 37° C., HTRF cAMP, read-out: cAMP human EP4 pEC50 (converted); for cAMP human EP4 Emax: positive control PGE2
T1 construct: expressed in transfected cells; host or cells: HEK293 cells transduced with EP4 BacMam baculovirus
Protocol: Cloning, Baculovirus generation, large scale infection of HEK293 cells and membrane preparation: Human prostaglandin E2 receptor 4 (EP4) was cloned into pBacMam expression vector (GeneScript, UK). Transposition of EP4 DNA was performed using Invitrogen's Bac-to-Bac Baculovirus Expression Systems. P0 baculovirus was generated by transfecting SF9 Cells with bacmid DNA using Cellfectin II transfection reagent (ThermoFisher Scientific, UK). Following P0 generation P1 virus was then generated ready for large scale infection and membrane preparation. HEK293 cells were grown in DMEM (ThermoFisher Scientific, UK), supplemented with 10% heat inactivated fetal bovine serum (FBS). Cells were infected at a seeding density of 3.5 million cells/mL in 500 cm^3 flasks at 5% v/v EP4 Bacman. Expression was carried out over a 36 hour period at 37° C. with 5% CO2. The cells were removed using PBS and a cell scrapper. The cell culture was centrifuged at 2500 RPM for 10 mins at 4° C. The supernatant was then poured off and the pellet stored at −80° C. The pellet was defrosted and re-suspended in 15 mL of homogenising buffer (20 mM HEPES, 10 mM EDTA, pH 7.4). Then homogenised in mechanical homogeniser (VMR) for 10 seconds. The membrane was centrifuged in centrifuge tubes at 40,000 g for 15 mins at 4° C. The supernatant was poured away and re-suspended in 15 mL of homogenising buffer and homogenised for 20 seconds. The membrane was then centrifuged at 40,000 g for 45 mins at 4° C. The membrane was then re-suspended in 3 mL of storage buffer (20 mM HEPES, 0.1 mM EDTA, pH 7.4) mixing well. The resulting membranes were then stored at −80° C.
cAMP Gs Functional Assay: cAMP production following EP4 receptor activation was determined using the Homogeneous Time-Resolved Fluorescence (HTRF) cAMP dynamic-2 assay (Cisbio, France). HEK293 cells were transfected using a 0.5% EP4 Bacman virus for 36 hours, before dissociating the cells, and freezing at −150° C.
On the day of testing, increasing concentration of test compounds, alongside positive controls ([…] PGE2 (Tocris, Abingdon, UK)) and negative control (DMSO (Sigma-Aldrich, UK) were added to a ProxiPlate-384 Plus, White 384-shallow well Mircoplate, (PerkinElmer, USA) using the ECHO dispense.
Cells were defrosted in a water bath and resuspended in DMEM supplemented with 10% FBS before centrifuging at 1200 RPM for 5 mins to form a pellet. The pellet was resuspended in assay buffer (DMEM+0.5 mM IBMX (Tocris, Abingdon, UK)) to 0.5×10^6 cells/mL. Cell suspension, for a final assay concentration of 5000 cell/well was added using the multidrop to the pre-dispensed assay plate. The plate was then incubated at 37° C. for 30 mins, with 5% CO2. The cAMP production was determined as manufacturer's instructions, before plates were read on a PheraStar fluorescence plate reader (BMG LabTech, Germany).

[1] = Unidirectional Caco-2 cell permeability assay; type: in vitro ADME; conditions: human, apical pH 6.5, basolateral pH 7.4, 1 hour, 37° C., n=2
Protocol: Caco-2 cells (ECACC) were seeded onto 24-well Transwell plates at 2×10^5 cells per well and used in confluent monolayers after a 21 day culture at 37° C. under 500 CO2. Test compounds were incubated at 10 μM, 0.2% DMSO final, n=2 in assay buffer (Hanks balanced salt solution supplemented with 25 mM HEPES, adjusted to pH 6.5). Hanks balanced salt solution supplemented with 25 mM HEPES, adjusted to pH 7.4 (0.2% DMSO final) was used for the basolateral chamber (as receiver).
Incubations were performed at 37° C., with samples removed from both donor and acceptor chambers at T=0 and 1 hour and compound analysed by mass spectrometry (LC-MS/MS) including an analytical internal standard ([…] carbamazepine).
Apparent permeability (Papp) values are shown in Table 3 and were determined from the relationship:
Where V is the volume of each Transwell compartment (apical 125 μL, basolateral 600 μL), and concentrations are the relative MS responses for compound (normalized to internal standard) in the donor chamber before incubation and acceptor chamber at the end of the incubation Area=area of cells exposed for drug transfer (0.33 cm^2).
Lucifer Yellow (LY) was added to the apical buffer in all wells to assess viability of the cell layer. As LY cannot freely permeate lipophilic barriers, a high degree of LY transport indicates poor integrity of the cell layer and wells with a LY Papp>10×10^−6 cm/s were rejected.
Compound recovery from the wells was determined from MS responses (normalized to internal standard) in donor and acceptor chambers at the end of incubation compared to response in the donor chamber pre-incubation.

T1 sequence (P35408 whole entry): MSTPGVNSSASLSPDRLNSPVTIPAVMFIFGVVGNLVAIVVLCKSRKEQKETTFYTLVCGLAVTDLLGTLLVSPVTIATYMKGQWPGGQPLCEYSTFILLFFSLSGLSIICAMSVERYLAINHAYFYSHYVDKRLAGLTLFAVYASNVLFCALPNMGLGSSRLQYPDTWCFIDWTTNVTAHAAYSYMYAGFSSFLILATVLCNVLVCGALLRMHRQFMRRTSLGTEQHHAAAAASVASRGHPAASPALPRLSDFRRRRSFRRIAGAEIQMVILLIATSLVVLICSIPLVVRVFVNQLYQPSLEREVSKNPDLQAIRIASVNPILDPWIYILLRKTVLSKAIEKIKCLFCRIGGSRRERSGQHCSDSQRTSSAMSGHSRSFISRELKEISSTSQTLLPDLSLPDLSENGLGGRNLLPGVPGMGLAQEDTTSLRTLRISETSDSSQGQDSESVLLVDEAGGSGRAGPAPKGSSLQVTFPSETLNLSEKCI

EC50 (human EP4) [nM] | cAMP human EP4 Emax (human EP4) [%] | Papp A→B at 1 h, 10 μM [1] [nm/s] | SMILES
158 | 98 | 2.6 | Cc1cc(S(N)(=O)=O)ccc1-c1cccc(CN2C[C@H](O)C[C@@H]2C(=O)N[C@@H](C)c2ccc(C(=O)O)cc2)c1 [Example 4, 4-((S)-1-((2R,4R)-4-hydroxy-1-((2′-methyl-4′-sulfamoyl-[1,1′-biphenyl]-3-yl)methyl)pyrrolidine-2-carboxamido)ethyl)benzoic acid]
12.6 | 100 | 11.8 | Cc1cc(C(N)=O)ccc1-c1cccc(CN2CCC[C@@H]2C(=O)N[C@@H](C)c2ccc(C(=O)O)cc2)c1 [Example 3, 4-((S)-1-((R)-1-((4′-carbamoyl-2′-methyl-[1,1′-biphenyl]-3-yl)methyl)pyrrolidine-2-carboxamido)ethyl)benzoic acid]
> 10000 |  | 77.1 | C[C@H](NC(=O)[C@H]1CCCN1Cc1cccc(-c2ccc(O)cc2)c1)c1ccc(C(=O)O)cc1 [Example 7, 4-((S)-1-((R)-1-((4′-hydroxy-[1,1′-biphenyl]-3-yl)methyl)pyrrolidine-2-carboxamido)ethyl)benzoic acid]
0.0316 | 97 | 3.2 | Cc1cc(O)ccc1-c1cc(O)cc(CN2CCC[C@@H]2C(=O)N[C@@H](C)c2ccc(C(=O)O)cc2)c1 [Example 33, 4-((S)-1-((R)-1-((4′,5-dihydroxy-2′-methyl-[1,1′-biphenyl]-3-yl)methyl)pyrrolidine-2-carboxamido)ethyl)benzoic acid]
31.6 | 96 | < 1 | Cc1cc(C(N)=O)ccc1-c1cccc(CN2CCC[C@@H]2C(=O)NCc2ccc(C(=O)O)c(O)c2)c1 [Example 15, (R)-4-((1-((4′-carbamoyl-2′-methyl-[1,1′-biphenyl]-3-yl)methyl)pyrrolidine-2-carboxamido)methyl)-2-hydroxybenzoic acid]
0.631 | 98 | < 1 | Cc1cc(S(N)(=O)=O)ccc1-c1cc(O)cc(CN2CCC[C@@H]2C(=O)N[C@@H](C)c2ccc(C(=O)O)cc2)c1 [Example 20, 4-((S)-1-((R)-1-((5-hydroxy-2′-methyl-4′-sulfamoyl-[1,1′-biphenyl]-3-yl)methyl)pyrrolidine-2-carboxamido)ethyl)benzoic acid]
0.158 | 91 | 2.45 | Cc1cc(C(N)=O)ccc1-c1cc(O)cc(CN2CC3CC2(C(=O)N[C@@H](C)c2ccc(C(=O)O)cc2)C3)c1 [Example 23, (S)-4-(1-(2-((4′-carbamoyl-5-hydroxy-2′-methyl-[1,1′-biphenyl]-3-yl)methyl)-2-azabicyclo[2.1.1]hexane-1-carboxamido)ethyl)benzoic acid]
1.58 | 99 | 11.4 | Cc1cc(S(N)(=O)=O)ccc1-c1cccc(CN2CCC[C@@H]2C(=O)N[C@@H](C)c2ccc(C(=O)O)cc2)c1 [Example 2, 4-((S)-1-((R)-1-((2′-methyl-4′-sulfamoyl-[1,1′-biphenyl]-3-yl)methyl)pyrrolidine-2-carboxamido)ethyl)benzoic acid]
200 | 96 | 3.3 | Cc1cc(C(=O)O)ccc1-c1cccc(CN2CCC[C@@H]2C(=O)N[C@@H](C)c2ccc(C(=O)O)cc2)c1 [Example 9, 3′-(((R)-2-(((S)-1-(4-carboxyphenyl)ethyl)carbamoyl)pyrrolidin-1-yl)methyl)-2-methyl-[1,1′-biphenyl]-4-carboxylic acid]
7.94 | 96 | < 1.1 | Cc1cc(C(N)=O)ccc1-c1cc(O)cc(CN2C[C@H](O)C[C@@H]2C(=O)N[C@@H](C)c2ccc(C(=O)O)cc2)c1 [Example 21, 4-((S)-1-((2R,4R)-1-((4′-carbamoyl-5-hydroxy-2′-methyl-[1,1′-biphenyl]-3-yl)methyl)-4-hydroxypyrrolidine-2-carboxamido)ethyl)benzoic acid]
0.02 | 98 | 4.5 | Cc1cc(C(N)=O)ccc1-c1cccc(CN2CCC[C@@H]2C(=O)NC2(c3ccc(C(=O)O)cc3)CC2)c1 [Example 31, (R)-4-(1-(1-((4′-carbamoyl-2′-methyl-[1,1′-biphenyl]-3-yl)methyl)pyrrolidine-2-carboxamido)cyclopropyl)benzoic acid]
158 | 100 | 1.9 | Cc1cc(C(N)=O)ccc1-c1cc(CN2CCC[C@@H]2C(=O)N[C@@H](C)c2ccc(C(=O)O)cc2)ccc1O [Example 14]
2 | 81 | 145 | Cc1cc(O)ccc1-c1cccc(CN2CCC[C@@H]2C(=O)N[C@@H](C)c2ccc(C(=O)O)cc2)c1 [Example 1]
0.251 | 99 | 3.4 | Cc1cc(C(N)=O)ccc1-c1cc(O)cc(CN2CCC[C@@H]2C(=O)N[C@@H](C)c2ccc(C(=O)O)cc2)c1 [Example 13]
7.94 | 89 | 2.6 | C[C@H](NC(=O)[C@H]1CCCN1Cc1ccc(O)c(-c2ccc(C(N)=O)cc2)c1)c1ccc(C(=O)O)cc1 [Example 12, 4-((S)-1-((R)-1-((4′-carbamoyl-6-hydroxy-[1,1′-biphenyl]-3-yl)methyl)pyrrolidine-2-carboxamido)ethyl)benzoic acid]
0.0501 | 97 | < 1 | Cc1cc(O)ccc1-c1cc(O)cc(CN2CCC[C@@H]2C(=O)N[C@@H](C)c2ccc(C(=O)O)c(O)c2)c1 [Example 35, 4-((S)-1-((R)-1-((4′,5-dihydroxy-2′-methyl-[1,1′-biphenyl]-3-yl)methyl)pyrrolidine-2-carboxamido)ethyl)-2-hydroxybenzoic acid]
6.31 | 91 | < 1.1 | Cc1cc(C(N)=O)ccc1-c1cccc(CN2CC3CC2(C(=O)NC2(c4ccc(C(=O)O)cc4)CC2)C3)c1 [Example 29, 4-(1-(2-((4′-carbamoyl-2′-methyl-[1,1′-biphenyl]-3-yl)methyl)-2-azabicyclo[2.1.1]hexane-1-carboxamido)cyclopropyl)benzoic acid]
